In ChEMBL document CHEMBL5053510, “Discovery of AS-1763: A Potent, Selective, Noncovalent, and Orally Available Inhibitor of Bruton's Tyrosine Kinase” (J Med Chem, 2021):

Assays:
[1] = target: Tyrosine-protein kinase BTK (Homo sapiens, UniProt Q06187); experiment: Inhibition of human BTK-A using phosphorylated substrate in presence of ATP by microplate reader assay
OCI-Ly10 = experiment: Antiproliferative activity against human OCILY10 cells assessed as reduction in cell proliferation measured after 96 hrs; format: functional, cell-based; conditions: OCI-Ly10, 96 h

Sequence of Tyrosine-protein kinase BTK (Q06187 whole entry): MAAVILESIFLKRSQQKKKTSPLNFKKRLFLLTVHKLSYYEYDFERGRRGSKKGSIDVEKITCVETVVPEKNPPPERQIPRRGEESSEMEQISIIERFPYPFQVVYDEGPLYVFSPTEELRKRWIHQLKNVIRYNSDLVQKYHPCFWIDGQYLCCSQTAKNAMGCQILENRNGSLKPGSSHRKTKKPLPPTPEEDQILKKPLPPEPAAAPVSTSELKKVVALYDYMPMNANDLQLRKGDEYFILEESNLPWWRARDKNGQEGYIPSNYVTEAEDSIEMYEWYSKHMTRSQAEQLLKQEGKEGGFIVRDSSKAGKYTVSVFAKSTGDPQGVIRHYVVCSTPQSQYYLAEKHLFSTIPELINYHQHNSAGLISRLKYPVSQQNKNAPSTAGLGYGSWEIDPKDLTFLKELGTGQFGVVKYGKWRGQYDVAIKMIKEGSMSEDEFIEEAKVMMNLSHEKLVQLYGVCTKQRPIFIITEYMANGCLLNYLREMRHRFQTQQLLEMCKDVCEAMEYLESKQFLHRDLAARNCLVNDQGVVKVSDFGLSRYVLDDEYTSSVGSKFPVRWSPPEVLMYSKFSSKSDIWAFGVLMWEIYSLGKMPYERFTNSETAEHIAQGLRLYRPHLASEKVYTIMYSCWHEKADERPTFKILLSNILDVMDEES

| IC50 [1] [nM] | IC50 (OCI-Ly10) [nM] | SMILES |
| --- | --- | --- |
| 0.69 | 13 | Nc1nc(-c2cccc(-n3ccc4cc(C5CC5)cc(F)c4c3=O)c2CO)c2cc(C3=CCN(C(=O)CN4CCOCC4)CC3)[nH]c2n1 |
| 51 | – | Nc1nc(-c2cccc(-n3ccc4cc(C5CC5)cc(F)c4c3=O)c2CO)c2cc[nH]c2n1 |
| 2.1 | – | Nc1nc(-c2cccc(-n3ccc4cc(C5CC5)cc(F)c4c3=O)c2CO)c2cc(-c3cccnc3)[nH]c2n1 |
